The subject of the data set is CCRIS mutagenicity, Ames/micronucleus/aberration tests. The experiment in a line: CCRIS mutagenicity studies.
Where [1] appears, read: Test System: AMES SALMONELLA TYPHIMURIUM, Strain/Indicator: TA98, Metabolic Activation: NONE, Method: PREINCUBATION
Setting [2] is: Test System: AMES SALMONELLA TYPHIMURIUM, Strain/Indicator: TA100, Metabolic Activation: NONE, Method: PREINCUBATION
Where [3] appears, read: Test System: AMES SALMONELLA TYPHIMURIUM, Strain/Indicator: TA100, Metabolic Activation: NONE, Method: STANDARD PLATE.

Active and inactive are the calls of the source. How the calls were made is not given here.

`COC(C)CCO` (centres undefined): the mutagenic call under setting [1] is “inactive; negative”; the mutagenic call (Test System: AMES SALMONELLA TYPHIMURIUM, Strain/Indicator: TA98, Metabolic Activation: RAT LIVER S-9, PHENOBARBITAL AND BETA-NAPHTHOFLAVONE, Method: PREINCUBATION) was “inactive; negative”; the mutagenic call under setting [2] was “inactive; negative”; the mutagenic call (Test System: AMES SALMONELLA TYPHIMURIUM, Strain/Indicator: TA100, Metabolic Activation: RAT LIVER S-9, PHENOBARBITAL AND BETA-NAPHTHOFLAVONE, Method: PREINCUBATION) is “inactive; negative”; the mutagenic call (Test System: AMES SALMONELLA TYPHIMURIUM, Strain/Indicator: TA1535, Metabolic Activation: NONE, Method: PREINCUBATION) was “inactive; negative”; the mutagenic call (Test System: AMES SALMONELLA TYPHIMURIUM, Strain/Indicator: TA1535, Metabolic Activation: RAT LIVER S-9, PHENOBARBITAL AND BETA-NAPHTHOFLAVONE, Method: PREINCUBATION) was “inactive; negative”. The mutagenic call (Test System: AMES SALMONELLA TYPHIMURIUM, Strain/Indicator: TA1537, Metabolic Activation: NONE, Method: PREINCUBATION) was “inactive; negative”; the mutagenic call (Test System: AMES SALMONELLA TYPHIMURIUM, Strain/Indicator: TA1537, Metabolic Activation: RAT LIVER S-9, PHENOBARBITAL AND BETA-NAPHTHOFLAVONE, Method: PREINCUBATION) is “inactive; negative”; the mutagenic call (Test System: E.COLI, Strain/Indicator: WP2UVRA/PKM101, Metabolic Activation: NONE, Method: PREINCUBATION) was “inactive; negative”; the mutagenic call (Test System: E.COLI, Strain/Indicator: WP2UVRA/PKM101, Metabolic Activation: RAT LIVER S-9, PHENOBARBITAL AND BETA-NAPHTHOFLAVONE, Method: PREINCUBATION) is “inactive; negative”.

Consider `Nc1ncnc2c1nc(-c1ccc([N+](=O)[O-])cc1)n2-c1ccc([N+](=O)[O-])cc1`, for which the mutagenic call is “active; positive” (Test System: AMES SALMONELLA TYPHIMURIUM, Strain/Indicator: TA98(1,8-DNP), Metabolic Activation: NONE, Method: PREINCUBATION); “active; positive” (Test System: AMES SALMONELLA TYPHIMURIUM, Strain/Indicator: TA98(1,8-DNP), Metabolic Activation: RAT, LIVER, S-9, PCB, Method: PREINCUBATION); “active; positive” (Test System: AMES SALMONELLA TYPHIMURIUM, Strain/Indicator: TA98(NR), Metabolic Activation: NONE, Method: PREINCUBATION); “active; positive” (Test System: AMES SALMONELLA TYPHIMURIUM, Strain/Indicator: TA98(NR), Metabolic Activation: RAT, LIVER, S-9, PCB, Method: PREINCUBATION); “active; positive” under setting [1]; “active; positive” (Test System: AMES SALMONELLA TYPHIMURIUM, Strain/Indicator: TA98, Metabolic Activation: RAT, LIVER, S-9, PCB, Method: PREINCUBATION). Further, the mutagenic call is, setting by setting: (Test System: AMES SALMONELLA TYPHIMURIUM, Strain/Indicator: TA100(1,8-DNP), Metabolic Activation: NONE, Method: PREINCUBATION) “inactive; negative”; (Test System: AMES SALMONELLA TYPHIMURIUM, Strain/Indicator: TA100(1,8-DNP), Metabolic Activation: RAT, LIVER, S-9, PCB, Method: PREINCUBATION) “inactive; negative”; (Test System: AMES SALMONELLA TYPHIMURIUM, Strain/Indicator: TA100(NR), Metabolic Activation: NONE, Method: PREINCUBATION) “inactive; negative”; (Test System: AMES SALMONELLA TYPHIMURIUM, Strain/Indicator: TA100(NR), Metabolic Activation: RAT, LIVER, S-9, PCB, Method: PREINCUBATION) “inactive; negative”; under setting [2], “active; positive”; (Test System: AMES SALMONELLA TYPHIMURIUM, Strain/Indicator: TA100, Metabolic Activation: RAT, LIVER, S-9, PCB, Method: PREINCUBATION) “active; positive”. The mutagenic call is “active; positive” (Test System: AMES SALMONELLA TYPHIMURIUM, Strain/Indicator: YG1020, Metabolic Activation: NONE, Method: PREINCUBATION); “active; positive” (Test System: AMES SALMONELLA TYPHIMURIUM, Strain/Indicator: YG1020, Metabolic Activation: RAT, LIVER, S-9, PCB, Method: PREINCUBATION); “active; positive” (Test System: AMES SALMONELLA TYPHIMURIUM, Strain/Indicator: YG1021, Metabolic Activation: NONE, Method: PREINCUBATION); “active; positive” (Test System: AMES SALMONELLA TYPHIMURIUM, Strain/Indicator: YG1021, Metabolic Activation: RAT, LIVER, S-9, PCB, Method: PREINCUBATION); “active; positive” (Test System: AMES SALMONELLA TYPHIMURIUM, Strain/Indicator: YG1024, Metabolic Activation: NONE, Method: PREINCUBATION); “active; positive” (Test System: AMES SALMONELLA TYPHIMURIUM, Strain/Indicator: YG1024, Metabolic Activation: RAT, LIVER, S-9, PCB, Method: PREINCUBATION). In addition, the mutagenic call is “active; positive” (Test System: AMES SALMONELLA TYPHIMURIUM, Strain/Indicator: YG1025, Metabolic Activation: NONE, Method: PREINCUBATION); “active; positive” (Test System: AMES SALMONELLA TYPHIMURIUM, Strain/Indicator: YG1025, Metabolic Activation: RAT, LIVER, S-9, PCB, Method: PREINCUBATION); “active; positive” (Test System: AMES SALMONELLA TYPHIMURIUM, Strain/Indicator: YG1026, Metabolic Activation: NONE, Method: PREINCUBATION); “active; positive” (Test System: AMES SALMONELLA TYPHIMURIUM, Strain/Indicator: YG1026, Metabolic Activation: RAT, LIVER, S-9, PCB, Method: PREINCUBATION); “active; positive” (Test System: AMES SALMONELLA TYPHIMURIUM, Strain/Indicator: YG1029, Metabolic Activation: NONE, Method: PREINCUBATION); “active; positive” (Test System: AMES SALMONELLA TYPHIMURIUM, Strain/Indicator: YG1029, Metabolic Activation: RAT, LIVER, S-9, PCB, Method: PREINCUBATION).

With `CC(=O)ON(OCc1ccc(Cl)cc1)C(=O)c1ccccc1`, the mutagenic call runs as follows: under setting [3], “active; positive”; (Test System: AMES SALMONELLA TYPHIMURIUM, Strain/Indicator: TA100, Metabolic Activation: RAT, S-9, AROCLOR, Method: STANDARD PLATE) “active; positive”.

As to `Cc1c2ccccc2cc2ccccc12`, the mutagenic call is “inactive; negative” (Test System: AMES SALMONELLA TYPHIMURIUM, Strain/Indicator: TA97, Metabolic Activation: NONE, Method: STANDARD PLATE); “active; positive” (Test System: AMES SALMONELLA TYPHIMURIUM, Strain/Indicator: TA97, Metabolic Activation: RAT, LIVER, S-9, PCB, Method: STANDARD PLATE); “inactive; negative” (Test System: AMES SALMONELLA TYPHIMURIUM, Strain/Indicator: TA98, Metabolic Activation: NONE, Method: STANDARD PLATE); “active; positive” (Test System: AMES SALMONELLA TYPHIMURIUM, Strain/Indicator: TA98, Metabolic Activation: RAT, LIVER, S-9, AROCLOR 1254, Method: STANDARD PLATE); “active; positive” (Test System: AMES SALMONELLA TYPHIMURIUM, Strain/Indicator: TA98, Metabolic Activation: RAT, LIVER, S-9, PCB, Method: STANDARD PLATE); “inactive; negative” under setting [3]. The mutagenic call is “inactive; negative” (Test System: AMES SALMONELLA TYPHIMURIUM, Strain/Indicator: TA100, Metabolic Activation: RAT, LIVER, S-9, AROCLOR 1254, Method: STANDARD PLATE) and “active; positive” (Test System: AMES SALMONELLA TYPHIMURIUM, Strain/Indicator: TA100, Metabolic Activation: RAT, LIVER, S-9, PCB, Method: STANDARD PLATE).

Values taken from PubChem BioAssay AID1259407 (Chemical Carcinogenesis Research Information System (CCRIS), 2018).
